Data reported in patent US10351536B2, “Crystalline forms of lesinurad and its sodium salt” (CRYSTAL PHARMATECH CO., LTD., priority 2013, dated 2019).
Where a name gives a salt, the structure may show the parent alone.

Assays:
[1] = Inter-conversion of Form A and Form α of lesinurad sodium salt by stirring in water (XRPD); type: physicochemical
[2] = Stability assessment of Form III under stress conditions (XRPD); type: physicochemical; details: 14 days; for Final form: dish open, XRPD
Method: (§1) Analytical Instrument: Panalytical Empyrean. The X-ray powder diffractogram was determined by mounting a sample of the crystalline material on a Si single crystal low-background holder and spreading out the sample into a thin layer with the aid of a microscope slide. The 2θ position was calibrated against Panalytical 640 Si powder standard. The sample irradiated with X-rays generated by a copper long-fine focus tube operated at 45 kV and 40 mA with a wavelength of Kα1=1.540589 angstroms and Kα2=1.544426 angstroms (Kα1/Kα2 intensity ratio is 0.50). The collimated X-ray source was passed through a programmed divergence slit set at 10 mm and the reflected radiation directed through a 5.5 mm anti-scattering slit. The sample was exposed for 16.3 seconds per 0.013° 2-theta increment (continuous scan mode) over the range 3 degrees to 40 degrees 2-theta in theta-theta mode. The running time was 3 minutes and 57 seconds. The instrument was equipped with an RTMS detector (X'Celerator). Control and data capture was accomplished by means of a Dell Optiplex 780 XP operating with data collector software.
Two samples of lesinurad Form III were stored under 25° C./60% RH and 40° C./75% RH, respectively, with dish open for 14 days. The solid samples were analyzed by XRPD.

[3] = Hygroscopicity assessment by dynamic vapor sorption (DVS); type: physicochemical; details: 25° C.
Method: Dynamic Vapor Sorption (DVS) was measured via a SMS (Surface Measurement Systems) DVS Intrinsic. The relative humidity at 25° C. were calibrated against deliquescence point of LiCl, Mg(NO3)2 and KCl. Typical Parameters for DVS test are listed below.
Hygroscopicity of lesinurad Form III was investigated using dynamic vapor sorption (DVS).
Hygroscopicity criteria applied in this example refer to the standard in European pharmacopoeia: • deliquescent: sufficient water is absorbed to form a liquid, • very hygroscopic: increase in mass is equal to or greater than 15 percent, • hygroscopic: increase in mass is less than 15 percent and equal to or greater than 2 percent, • slightly hygroscopic: increase in mass is less than 2 percent and equal to or greater than 0.2 percent.

[4] = Stability assessment of lesinurad sodium salt Form β on storage (XRPD); type: physicochemical; details: room temperature, 12 months
Method: as §1
A sample of the lesinurad sodium salt Form β was stored under room temperature for 12 months. The solid sample was analyzed by XRPD.

gout patients = details: Phase III, gout patients without benefit from allopurinol and febuxostat, lesinurad alone; cited from earlier work

With O=C(O)CSc1nnc(Br)n1-c1ccc(C2CC2)c2ccccc12 [Form A, lesinurad sodium salt, reference compound] the “Form conversion after stirring in water” value ([1]; water, 500 rpm, 24 hours, ambient conditions, XRPD) was “converts to Form α”.
In the case of O=C(O)CSc1nnc(Br)n1-c1ccc(C2CC2)c2ccccc12 [Form III, 2-((5-bromo-4-(4-cyclopropylnaphthalen-1-yl)-4H-1,2,4-triazol-3-yl)thio)acetic acid], the “Stability under the stress conditions” value ([2]; 25° C./60% RH and 40° C./75% RH) is reported as “stable under the stress conditions”, the Final form ([2]; 25° C./60% RH) is reported as “Form III” and the Final form ([2]; 40° C./75% RH) is reported as “Form III”. For the same compound, the “Water uptake under 80% RH” value ([3]; 80% RH) was 0.8%, the “Water uptake under 95% RH” value ([3]; 95% RH) was 2.4% and the “Hygroscopicity (European pharmacopoeia criteria)” value ([3]; 80% RH) was “slightly hygroscopic (increase in mass is less than 2 percent and equal to or greater than 0.2 percent)”.
With O=C(O)CSc1nnc(Br)n1-c1ccc(C2CC2)c2ccccc12 [Form α, lesinurad sodium salt] the “Relative stability in water” value ([1]; in water under ambient conditions) was “more stable in comparison to Form A”.
For O=C(O)CSc1nnc(Br)n1-c1ccc(C2CC2)c2ccccc12 [Form β, lesinurad sodium salt], the “Stability under the stress conditions” value [4] was “stable under the stress conditions” and the Final form ([4]; XRPD) was “salt Form β”.
In the case of O=C(O)CSc1nnc(Br)n1-c1ccc(C2CC2)c2ccccc12 [lesinurad, 2-((5-bromo-4-(4-cyclopropylnaphthalen-1-yl)-4H-1,2,4-triazol-3-yl)thio)acetic acid], the “Serum levels of uric acid” value (gout patients) is listed as “significantly reduced serum levels of uric acid”.
